# Laboratory results from PubChem BioAssay (NCI).
#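 Briefly, cells in 96-well plates were exposed to five compound concentrations for 48 h, and endpoints were estimated by linear interpolation. GI50 = concentration required for 50% inhibition of growth. TGI: total growth inhibition.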
# Key:
# Assay in all cases: DTP human tumour cell line panel, 48 h
# U251 CNS = test system: U251 CNS
# RPMI-8226 leukemia = test system: RPMI-8226 leukemia
# SNB-75 CNS = test system: SNB-75 CNS
# UACC-62 melanoma = test system: UACC-62 melanoma
# A498 renal = test system: A498 renal
# LOX IMVI melanoma = test system: LOX IMVI melanoma
# IGROV1 ovarian = test system: IGROV1 ovarian
# 786-0 renal = test system: 786-0 renal
# HL-60(TB) leukemia = test system: HL-60(TB) leukemia
# HOP-92 NSCLC = test system: HOP-92 NSCLC
SMILES,GI50 (U251 CNS),TGI (U251 CNS),GI50 (RPMI-8226 leukemia),TGI (RPMI-8226 leukemia),GI50 (SNB-75 CNS),TGI (SNB-75 CNS),GI50 (UACC-62 melanoma),TGI (UACC-62 melanoma),GI50 (A498 renal),TGI (A498 renal),GI50 (LOX IMVI melanoma),TGI (LOX IMVI melanoma),GI50 (IGROV1 ovarian),TGI (IGROV1 ovarian),GI50 (786-0 renal),TGI (786-0 renal),GI50 (HL-60(TB) leukemia),TGI (HL-60(TB) leukemia),TGI (HOP-92 NSCLC),GI50 (HOP-92 NSCLC)
CC(=O)[CH-]C(=O)c1ccccc1.CC(=O)[CH-]C(=O)c1ccccc1.CCN(CC)CC[O-].CCN(CC)CC[O-].Cl.[Ti+4],25.2 µM,> 100 µM,38.3 µM,> 100 µM,21.9 µM,47.3 µM,36 µM,91.6 µM,26.2 µM,72.5 µM,43.4 µM,> 100 µM,45.8 µM,> 100 µM,45.5 µM,> 100 µM,19.6 µM,61.2 µM,,
CC(=O)Oc1c(C)n(CCCl)ccc1=O,,> 100 µM,,> 100 µM,,> 100 µM,,> 100 µM,,> 100 µM,,> 100 µM,,,,> 100 µM,,> 100 µM,,
CCCCOC(=O)C(=O)C(CC(C(=O)Cc1ccccc1)c1ccccc1)C(=O)C=C(C)C (stereo not drawn),,> 100 µM,,,,> 100 µM,,> 100 µM,,,,> 100 µM,,> 100 µM,,> 100 µM,,> 100 µM,> 100 µM,
COc1cc(O)c(C(=O)/C=C/c2ccccc2)c(OC)c1,,21.3 µM,,10.3 µM,,,,17.3 µM,,16.5 µM,,6.36 µM,,17.4 µM,,21.6 µM,,5.17 µM,14.4 µM,
COC(=O)Nc1nc2ccc(C(=O)c3ccc[nH]3)cc2[nH]1,,> 100 µM,,> 100 µM,,1.69 µM,,> 100 µM,,> 100 µM,,> 100 µM,,> 100 µM,,> 100 µM,,0.927 µM,,
Cc1ccc(-c2c(C#N)c(N)nc(N3CCOCC3)c2C#N)o1,,,49.8 µM,> 100 µM,2.73 µM,43.9 µM,39 µM,> 100 µM,15.5 µM,54.4 µM,,,21.6 µM,59.6 µM,19.1 µM,57.9 µM,46.3 µM,> 100 µM,> 100 µM,23.6 µM
COc1cc(-c2cc(C(=O)N3CCN(C(=O)c4ccccc4NCc4ccco4)CC3)nc3cc(-c4ccccc4)nn23)cc(OC)c1OC,3.85 µM,> 100 µM,3.61 µM,> 100 µM,2.07 µM,19.3 µM,4.71 µM,> 100 µM,3.02 µM,> 28.4 µM,4.01 µM,> 100 µM,5.44 µM,> 100 µM,4.55 µM,> 100 µM,3.7 µM,30.6 µM,,
COc1cc2cc(Oc3ccc(NC(=O)Nc4cccc(C(F)(F)F)c4)cc3)c(C)nc2cc1OCCN1CCCCC1,,,,,1.15 µM,2.37 µM,1.75 µM,3.15 µM,1.45 µM,2.9 µM,,,,,1.72 µM,3.21 µM,1.94 µM,3.74 µM,2.34 µM,1.08 µM
CC12OC(C(=O)C13CC3)C1C(=O)c3ccccc3C(=O)C12 (stereo not drawn),,,,,77.5 µM,> 100 µM,,,,,,,23.1 µM,65.9 µM,18.2 µM,37.6 µM,26.8 µM,81.6 µM,60.7 µM,21.8 µM
